The values below come from patent US10072293B2, “Systems, models and methods for identifying and evaluating skin-active agents effective for treating dandruff/seborrheic dermatitis” (The Procter and Gamble Company, priority 2011, dated 2018).

Values joined by “and” are separate entries in the source; they are usually repeats but may differ in a detail not shown here. Identical values can stand only once.

Experiment [1] concerns human 3-dimensional organotypic cultures. Briefly: In vitro model of dandruff: organotypic skin cultures given IL-22 and IL-17A. Particulars: organotypic cultures treated with IL-22 and IL-17A. It counts as cell-based. From the text: In some embodiments, the methods of the present invention may further comprise testing the selected candidate cosmetic agent, using in vitro assays and/or in vivo testing, to validate the activity of the agent and usefulness as a cosmetic agent. Any suitable in vitro test method can be used, including those known in the art, and most preferably in vitro models developed in accordance with the present invention. For example, MatTek human skin equivalent cultures or other skin equivalent cultures may be treated with one or a combination of perturbagens selected for mimicry of the skin condition of interest with respect to regulation of the genes constituting a physiological theme pattern for the skin condition of interest. The treated skin culture replicates the, for example, dandruff condition where it is treated with IL17 and IL22 in accordance with the instant invention, and perturbagens may be screened for their ability to shift the homeostatic equilibrium of the treated skin culture toward healthy skin, as determined by transcriptional analysis. Skin biopsy assays may also be used to evaluate candidate skin-active agents as anti-dandruff agents. In some embodiments, evaluation of selected agents using in vitro assays may reveal, confirm, or both, that one or more new candidate cosmetic agents may be used in conjunction with a known cosmetic agent (or a combination of known cosmetic agents) to regulate a skin condition of interest.
A great challenge in the identification of new therapeutics is the development of in vitro models that are predictive of clinical efficacy. Because no animal models of the dandruff condition are available, there is a need for a model with high fidelity to the internal disease state so that it recapitulates the key features of dandruff lesional skin in vivo. The challenge of developing a good in vitro model for skin conditions such as dandruff is complicated by the fact that the events that trigger the development of dandruff are poorly understood. Transcriptomic profiling work in dandruff lesional skin has provided many new clues, chief among them evidence for a Th-17 driven inflammatory process.
These substances include selenium sulfide, ZPT, ketoconazole, clobetasol propionate and the iron chelator 1,10-phenanthroline.
The in vitro disease simulation according to the invention produces a pattern of gene expression that strongly resembles dandruff lesional skin. Affymetrix U133A Plus 2 microarrays were used to evaluate the gene expression profile elicited by exposure of organotypic human skin cultures to a variety of proinflammatory cytokines individually and in combination, as set forth in FIG. 21A and FIG. 21B. […] This strongly supports that the simulation is producing a gene expression pattern that resembles the disease condition.

For experiment [2], the system named is Human telomerized keratinocytes (tKC). Briefly: C-map query with lipid metabolism / immune-inflammation dandruff gene signature, keratinocyte instances. It counts as cell-based. From the text: In a very specific embodiment, an instance consists of the rank ordered data for all of the probe sets on the Affymetrix HG-U133A2.0 GeneChip wherein each probe on the chip has a unique probe set IDentifier. The probe sets are rank ordered by the fold change relative to the controls in the same C-map batch (single instance/average of controls).
Individual experiments (referred to as batches) generally comprise 30 to 96 samples analyzed using Affymetrix GeneChip® technology platforms, containing 6 replicates of the vehicle control (e.g., DMSO), 2 replicate samples of a positive control that gives a strong reproducible effect in the cell type used, and samples of the test material/perturbagen. Replication of the test material is done in separate batches due to batch effects. In vitro testing was performed in 6-well plates to provide sufficient RNA for GeneChip® analysis (2-4 μg total RNA yield/well).
(§1) Human telomerized keratinocytes (tKC) were obtained from the University of Texas, Southwestern Medical Center, Dallas, Tex. tKC cells were grown in EpiLife® media with 1× Human Keratinocyte Growth Supplement (Invitrogen, Carlsbad, Calif.) on collagen I coated cell culture flasks and plates (Becton Dickinson, Franklin Lakes, N.J.). Keratinocytes were seeded into 6-well plates at 20,000 cells/cm^2 24 hours before chemical exposure. Human skin fibroblasts (BJ cell line from ATCC, Manassas, Va.) were grown in Eagle's Minimal Essential Medium (ATCC) supplemented with 10% fetal bovine serum (HyClone, Logan, Utah) in normal cell culture flasks and plates (Corning, Lowell, Mass.). BJ fibroblasts were seeded into 6-well plates at 12,000 cells/cm^2 24 hours before chemical exposure.
All cells were incubated at 37° C. in a humidified incubator with 5% CO2. At t=−24 hours cells were trypsinized from T-75 flasks and plated into 6-well plates in basal growth medium. At t=0 media was removed and replaced with the appropriate dosing solution as per the experimental design.

The test system of another experiment is MCF7. Briefly: C-map query with lipid metabolism / immune-inflammation dandruff gene signature, MCF7 instances. Particulars: MCF7, 10 μM.
Experiment [3] concerns scalp skin of dandruff subjects. As to the kind of experiment: ZPT transcriptomics study: double-blind, vehicle-controlled shampoo treatment, scalp biopsy gene expression. The class given is in vivo, human. Particulars: shampoo with 1% ZPT, 3 times a week for 3 weeks, week 3. From the text: 1) 31 healthy male subjects aged 18-75 were divided into two groups of 16 “non-dandruff” and 15 “dandruff” subjects, as defined by a published flake scoring procedure, adherent scalp flake score (ASFS). […] 2) In a double-blinded treatment study, 45 healthy male subjects (30 dandruff and 15 non-dandruff as defined by ASFS criteria, aged 18-50 years) were enrolled and were shampooed at the clinical site three (3) times a week for three (3) weeks with either a commercially available anti-dandruff shampoo with 1% ZPT (15 dandruff subjects) or the same formula without ZPT (15 dandruff and 15 non-dandruff subjects). Full thickness 2 mm biopsies were collected from all three groups at baseline and end of study. Total RNA was extracted from the biopsies and labeled for Affymetrix GeneChip® analysis. The synthesized target cRNA was hybridized to Affymetrix HG U133A microarrays. Statistically analyzed data were filtered by significance (p<0.05, Dandruff vs. Non-Dandruff; ZPT vs. vehicle treatments) to identify genes showing an increase or decrease in expression level, a standard bioinformatics approach. Methodology and Results of Study 1:
The subject's hair/scalp was washed by study personnel on clinical site 3×/week for 3 weeks. Full thickness 2 mm punch biopsies collected at baseline and end of study. […]

The subject of experiment [4] is fibroblast and keratinocyte cell lines. Briefly: C-map query with lipid-immune dandruff signature, whole database. It counts as cell-based, human. Particulars: each agent tested at several concentrations. On the procedure: as §1
Each agent was tested at several concentrations.

In experiment [5] the test system is human keratinocytes (hKC). As to the kind of experiment: Connectivity map linkage scores, inflammatory skin disorder signature, hKC instances. The class given is cell-based. The text has this: (§2) Gene expression data from five inflammatory skin disorders (acne, atopic dermatitis, dandruff, eczema and psoriasis) were collected from a clinical genomics study and published studies. The raw expression data were used to produce a rank-ordered list of most differentially regulated genes associated with inflammatory skin disorders.
The derived gene signature was used to query a provided database comprising gene expression data from clinical genomics studies of a widely different inflammatory skin disorders, published in vitro genomics studies of disparate inflammatory skin disorders, and genomics data from an internal in vitro model of dandruff inflammatory pathology (human organotypic, MatTek, cultures). […] Thus, the internal model was validated as being useful for study of inflammatory cascades and other gene expression alterations associated with inflammatory skin disorders.

Experiment [6] has as its system reconstituted human epidermis (RHE). Briefly: Connectivity map linkage scores, inflammatory skin disorder signature (top 70 up / 70 down), RHE instances. Also on record: scale not given here. The class given is cell-based.
Excerpt: as §2
The derived gene signature was used to query a provided database comprising gene expression data from clinical genomics studies of a widely different inflammatory skin disorders, published in vitro genomics studies of disparate inflammatory skin disorders, and genomics data from an internal in vitro model of dandruff inflammatory pathology (human organotypic, MatTek, cultures).

For the molecule `c1cnc2c(c1)ccc1cccnc12` [1,10-phenanthroline], in experiment [1], the “Blocking of IL-22/IL-17A-induced responses (hyperplasia, perturbed differentiation markers, IL-8 secretion)” value is listed as “capable of blocking these responses”.

In the case of `CC(C)(C)C(=O)C(Oc1ccc(Cl)cc1)n1ccnc1` (centres unmarked) [Climbazole], the “Score (connectivity score)” value in experiment [2] (1 μM, 6hr (chip ID)) is recorded as −0.55; in experiment [2] (10 μM, 24hr (chip ID)), −0.67.

In the case of `CCC(=O)O[C@]1(C(=O)CCl)[C@@H](C)C[C@H]2[C@@H]3CCC4=CC(=O)C=C[C@]4(C)[C@@]3(F)[C@@H](O)C[C@@]21C` [Clobetasol Propionate], in experiment [1], the “Blocking of IL-22/IL-17A-induced responses (hyperplasia, perturbed differentiation markers, IL-8 secretion)” value is “capable of blocking these responses”.

For `CC(=O)N1CCN(c2ccc(OCC3COC(Cn4ccnc4)(c4ccc(Cl)cc4Cl)O3)cc2)CC1` (centres unmarked) [Ketoconazole], the “Blocking of IL-22/IL-17A-induced responses (hyperplasia, perturbed differentiation markers, IL-8 secretion)” value in experiment [1] is listed as “capable of blocking these responses”. Further, the “Score (connectivity score)” value in experiment [2] (1 μM, 24hr (chip ID)) is given as −0.58.

For the molecule `CN(CCOc1ccc(CC2SC(=O)NC2=O)cc1)c1ccccn1` (centres unmarked) [Rosiglitazone], in the experiment on MCF7, the “Score (connectivity score)” value was −0.51.

Turning to `O=C(O)Cc1cc(I)c(Oc2ccc(O)c(I)c2)c(I)c1` [Triac], in experiment [2] (10 μM, exposure time not given), the “Score (connectivity score)” value is given as −0.53.

On to `[O-]n1ccccc1=S.[O-]n1ccccc1=S.[Zn+2]` [ZPT, zinc salt of 1-hydroxy-2-pyrithione], for which the “Scalp gene expression profile shift (~3700 significantly altered genes, hierarchical clustering)” value in experiment [3] was “expression shift toward the non-dandruff condition”. The “Blocking of IL-22/IL-17A-induced responses (hyperplasia, perturbed differentiation markers, IL-8 secretion)” value in experiment [1] is “capable of blocking these responses”. In addition, the “Linkage to lipid-immune dandruff gene signature” value in experiment [4] is “not in the list of instances strongly linked to the gene signature”.

`S=[Se]=S` [selenium sulfide]: in experiment [1], the “Blocking of IL-22/IL-17A-induced responses (hyperplasia, perturbed differentiation markers, IL-8 secretion)” value is “capable of blocking these responses”. Moreover, in experiment [4], the “Linkage to lipid-immune dandruff gene signature” value is on record as “not in the list of instances strongly linked to the gene signature”.

Take “HK23/2 IL17: interleukin; proinflammatory cytokine produced by Th-17 cells”: in experiment [5] (200 ng/ml), the “Down Score” value is −0.151, the Score worked out at 0.579 and the “Up Score” value turned out to be 0.428.

Take IL1b: interleukin: in experiment [6] (10 ng/ml), the Score was 0.710 and 0.649; the “Up Score” value was 0.420 and 0.380.

B1: IL19: interleukin (protein, UniProt Q9UHD0 25-177, looked up)
Interleukin-19: LRRCLISTDMHHIEESFQEIKRAIQAKDTFPNVTILSTLETLQIIKPLDVCCVTKNLLAFYVDRVFKDHQEPNPKILRKISSIANSFLYMQKTLRQCQEQRQCHCRQEATNATRVIHDNYDQLEVHAAAIKSLGELDVFLAWINKNHEVMFSA
Turning to B1, in experiment [6] (20 ng/ml), the Score was 0.749 and 0.729 and 0.807; the “Up Score” value is 0.410 and 0.460 and 0.505.

B2: IL24: interleukin (protein, UniProt Q13007 52-206, looked up)
Interleukin-24: QEFHFGPCQVKGVVPQKLWEAFWAVKDTMQAQDNITSARLLQQEVLQNVSDAESCYLVHTLLEFYLKTVFKNYHNRTVEVRTLKSFSTLANNFVLIVSQLQPSQENEMFSIRDSAHRRFLLFRRAFKQLDVEAALTKALGEVDILLTWMQKFYKL
For B2, in experiment [6] (20 ng/ml), the Score was 0.833 and 0.829 and 0.801; the “Up Score” value was 0.485 and 0.517 and 0.461.

B3: IFNg: interferon (protein, UniProt P01579 24-161, looked up)
Interferon gamma: QDPYVKEAENLKKYFNAGHSDVADNGTLFLGILKNWKEESDRKIMQSQIVSFYFKLFKNFKDDQSIQKSVETIKEDMNVKFFNSNKKKRDDFEKLTNYSVTDLNVQRKAIHELIQVMAELSPAAKTGKRKRSQMLFRG
For the molecule B3, in experiment [5] (20 ng/ml), the “Down Score” value is reported as −0.102, the Score amounted to 0.552 and the “Up Score” value came to 0.450. In experiment [6] (10 ng/ml), the Score was 0.665 and 0.657; the “Up Score” value was 0.420 and 0.431.

B4: IL22: interleukin; proinflammatory cytokine produced by Th-17 cells (protein, UniProt Q9GZX6 34-179, looked up)
Interleukin-22: APISSHCRLDKSNFQQPYITNRTFMLAKEASLADNNTDVRLIGEKLFHGVSMSERCYLMKQVLNFTLEEVLFPQSDRFQPYMQEVVPFLARLSNRLSTCHIEGDDLHIQRNVQKLKDTVKKLGESGEIKAIGELDLLFMSLRNACI
Take B4: in experiment [5] (200 ng/ml), the “Down Score” value is on record as −0.214, the Score turned out to be 0.573 and the “Up Score” value is reported as 0.358. For the same molecule, in experiment [6] (20 ng/ml), the Score is 0.789 and 0.740 and 0.705; the “Up Score” value is 0.444 and 0.410 and 0.388.
